This is an account of results in US10357481B2 (MERCK SHARP & DOHME CORP., priority 2015, dated 2019).

The experiment concerns the target T1, human PDE2A1 (Homo sapiens, UniProt O00408).
T1 construct: GST; purchased BPS Bioscience (San Diego, Calif.) 60020; host or cells: insect cells
Description: IMAP FP PDE selectivity panel, human PDE2A1. In kind it is biochemical. Conditions: Lab B; read-out: Human PDE2 Ki (nM) Lab B. The protocol:
Selectivity for PDE2, as compared to other PDE families, was assessed using the IMAP® technology. Human PDE10A2 enzyme was prepared from cytosolic fractions of transiently transfected HEK cells.
Assays for PDE 1 through 11 were performed in parallel at room temperature in 384-well microtiter plates with an incubation volume of 20.2 μL. Solutions of test compounds were prepared in DMSO and serially diluted with DMSO to yield 30 μL of each of ten solutions differing by 3-fold in concentration, at 32 serial dilutions per plate. […] A Labcyte POD 810 (Labcyte, Sunnyvale, Calif.) was used to dispense 200 nL from each well of the titration plate to make eleven copies of the assay plate for each titration, one copy for each PDE enzyme. A solution of each enzyme (dilution from aliquots, sufficient to produce 20% substrate conversion) and a separate solution of FAM-labeled cAMP or FAM-labeled cGMP from Molecular Devices (Sunnyvale, Calif., product # R7506 or cGMP#R7508), at a final concentration of 50 nM were made in the assay buffer (10 mM Tris HCl, pH 7.2, 10 mM MgCl2, 0.05% NaN3 0.01% Tween-20, and 1 mM DTT). Note that the substrate for PDE2 is 50 nM FAM cAMP containing 1000 nM of cGMP. The enzyme and the substrate were then added to the assay plates in two consecutive additions of 10 μL and then shaken to mix. The reaction was allowed to proceed at room temperature for 60 minutes. A binding solution was then made from the kit components, comprised of 80% Solution A, 20% Solution B and binding reagent at a volume of 1/600 the total binding solution. The enzymatic reaction was stopped by addition of 60 μL of the binding solution to each well of the assay plate. The plates were sealed and shaken for 10 seconds. The plates were incubated at room temperature for one hour, then the parallel and perpendicular fluorescence was measured using a Tecan Genios Pro plate reader (Tecan, Switzerland). […] The intrinsic PDE2 inhibitory activity of a compound which may be used in accordance with the present invention may be determined by these assays.

T1 sequence (O00408 1-920 isoform O00408-2): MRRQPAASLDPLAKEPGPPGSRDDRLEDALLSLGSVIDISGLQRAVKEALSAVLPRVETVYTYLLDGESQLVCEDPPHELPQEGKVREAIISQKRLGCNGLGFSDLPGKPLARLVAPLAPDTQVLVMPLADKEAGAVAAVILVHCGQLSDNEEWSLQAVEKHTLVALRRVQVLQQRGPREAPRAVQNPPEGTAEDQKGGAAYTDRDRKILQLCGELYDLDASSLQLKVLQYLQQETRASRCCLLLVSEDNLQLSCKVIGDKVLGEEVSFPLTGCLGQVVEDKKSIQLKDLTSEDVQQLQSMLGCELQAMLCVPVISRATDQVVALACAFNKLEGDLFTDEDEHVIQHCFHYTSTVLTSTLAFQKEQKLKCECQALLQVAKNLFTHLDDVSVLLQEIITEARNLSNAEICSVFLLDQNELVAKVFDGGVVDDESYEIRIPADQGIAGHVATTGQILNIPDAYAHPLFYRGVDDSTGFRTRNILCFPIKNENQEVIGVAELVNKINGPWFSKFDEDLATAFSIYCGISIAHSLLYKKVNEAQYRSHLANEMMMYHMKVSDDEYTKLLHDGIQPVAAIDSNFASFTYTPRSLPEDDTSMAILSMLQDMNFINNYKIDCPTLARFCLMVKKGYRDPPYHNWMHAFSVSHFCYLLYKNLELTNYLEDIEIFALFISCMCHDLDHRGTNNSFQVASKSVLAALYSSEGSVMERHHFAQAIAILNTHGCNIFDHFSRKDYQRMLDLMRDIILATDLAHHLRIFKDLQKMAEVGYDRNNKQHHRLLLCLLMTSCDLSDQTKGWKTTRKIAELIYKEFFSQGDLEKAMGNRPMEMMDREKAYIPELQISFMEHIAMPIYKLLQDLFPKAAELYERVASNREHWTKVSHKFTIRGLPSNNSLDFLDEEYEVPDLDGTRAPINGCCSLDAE

A word on the Ki: it is a measure of affinity in units of concentration, obtained from inhibition or displacement. With `Cc1cc(N[C@H](c2ccc(OC(F)(F)F)c(F)c2)C(C)(C)O)n2ncnc2n1` (single isomer, unassigned) [Example 91], the inhibitory constant (Ki) was more than 2960 nM.
Regarding `Cc1cc(NC(c2ccc(C(F)(F)F)cc2Cl)C(C)(C)O)n2ncnc2n1` (single isomer, unassigned) [Example 104, (1S or R)-1-[2-Chloro-4-(trifluoromethyl)phenyl]-2-methyl-1-[(5-methyl[1,2,4]triazolo[1,5-a]pyrimidin-7-yl)amino]propan-2-ol], the Ki was approximately 2780 nM.
`Cc1cc(NC(c2ccc(C(F)(F)F)cc2Cl)C(C)(C)O)n2ncnc2n1` (single isomer, unassigned) [Example 105, (1R or S)-1-[2-Chloro-4-(trifluoromethyl)phenyl]-2-methyl-1-[(5-methyl[1,2,4]triazolo[1,5-a]pyrimidin-7-yl)amino]propan-2-ol]: the inhibitory constant (Ki) was found to be 38 nM.
The figure for `Cc1cc(NC(c2ccc(C(C)(C)C)cc2)C(C)(C)O)n2ncnc2n1` (single isomer, unassigned) [Example 106] is more than 1240 nM; for `Cc1cc(NC(c2ccc(C(C)(C)C)cc2)C(C)(C)O)n2ncnc2n1` (single isomer, unassigned) [Example 107] it is 13 nM.
The figure for `Cc1cc(NC(c2ccc(C(F)F)cc2)C(C)(C)O)n2ncnc2n1` (single isomer, unassigned) [Example 108, (1S or R)-1-[4-(Difluoromethyl)phenyl]-2-methyl-1-[(5-methyl [1,2,4]triazolo [1,5-a]pyrimidin-7-yl)amino] propan-2-ol] is 49 nM; for `Cc1cc(NC(c2ccc(C(F)F)cc2)C(C)(C)O)n2ncnc2n1` (single isomer, unassigned) [Example 109, (1R or S)-1-[4-(Difluoromethyl)phenyl]-2-methyl-1-[(5-methyl [1,2,4]triazolo [1,5-a]pyrimidin-7-yl)amino] propan-2-ol] it is 905 nM; for `Cc1cc(NC(c2ccc(OC(F)F)cc2)C(C)(C)O)n2ncnc2n1` (single isomer, unassigned) [Example 110, (1S or R)-1-[4-(Difluoro-methoxy)phenyl]-2-methyl-1-[(5-methyl[1,2,4]triazolo[1,5-a]pyrimidin-7-yl)amino]propan-2-ol] it is more than 2960 nM.
The figure for `Cc1cc(NC(c2ccc(OC(F)F)cc2)C(C)(C)O)n2ncnc2n1` (single isomer, unassigned) [Example 111, (1R or S)-1-[4-(Difluoro-methoxy)phenyl]-2-methyl-1-[(5-methyl[1,2,4]triazolo[1,5-a]pyrimidin-7-yl)amino]propan-2-ol] is 26 nM; for `Cc1cc(NC(c2ccc3c(c2)OC(F)(F)O3)C(C)(C)O)n2ncnc2n1` (single isomer, unassigned) [Example 112, (1S or R)-1-(2,2-Difluoro-1,3-benzodioxol-5-yl)-2-methyl-1-[(5-methyl[1,2,4]triazolo[1,5-a]pyrimidin-7-yl)amino]propan-2-ol] it is more than 2960 nM.
On to `Cc1cc(NC(c2ccc3c(c2)OC(F)(F)O3)C(C)(C)O)n2ncnc2n1` (single isomer, unassigned) [Example 113, (1R or S)-1-(2,2-Difluoro-1,3-benzodioxol-5-yl)-2-methyl-1-[(5-methyl[1,2,4]triazolo[1,5-a]pyrimidin-7-yl)amino]propan-2-ol], for which the Ki was found to be 93 nM.
As for `Cc1cc(NC(c2ccc(C(F)(F)F)cc2F)C(C)(C)O)n2ncnc2n1` (single isomer, unassigned) [Example 114, (1S or R)-1-[2-Fluoro-4-(trifluoromethyl)phenyl]-2-methyl-1-[(5-methyl [1,2,4]triazolo [1,5-a]pyrimidin-7-yl)amino] propan-2-ol], the inhibition constant Ki is more than 2960 nM.
As for `Cc1cc(NC(c2ccc(C(F)(F)F)cc2F)C(C)(C)O)n2ncnc2n1` (single isomer, unassigned) [Example 115, (1R or S)-1-[2-Fluoro-4-(trifluoromethyl)phenyl]-2-methyl-1-[(5-methyl [1,2,4]triazolo [1,5-a]pyrimidin-7-yl)amino] propan-2-ol], the inhibition constant Ki was 23 nM.
For the compound `Cc1cc(NC(c2ccc(S(F)(F)(F)(F)F)cc2)C(C)(C)O)n2ncnc2n1` (single isomer, unassigned) [Example 116, (1S or R)-2-Methyl-1-[(5-methyl[1,2,4]triazolo[1,5-a]pyrimidin-7-yl)amino]-1-[4-(pentafluoro-λ^6-sulfanyl)phenyl] propan-2-ol], the Ki was more than 2960 nM.
To `Cc1cc(NC(c2ccc(CC(F)(F)F)cc2)C(C)(C)O)n2ncnc2n1` (single isomer, unassigned) [Example 118, (1S or R)-2-Methyl-1-[(5-methyl [1,2,4]triazolo [1,5-a]pyrimidin-7-yl)amino]-1-[4-(2,2,2-trifluoroethyl)phenyl]propan-2-ol] belongs more than 2960 nM.
On to `Cc1cc(NC(c2ccc(CC(F)(F)F)cc2)C(C)(C)O)n2ncnc2n1` (single isomer, unassigned) [Example 119, (1R or S)-2-Methyl-1-[(5-methyl [1,2,4]triazolo [1,5-a]pyrimidin-7-yl)amino]-1-[4-(2,2,2-trifluoroethyl)phenyl]propan-2-ol], for which the Ki came out at 15 nM.
To `Cc1cc(NC(c2ccc(C3(C)CC3)cc2)C(C)(C)O)n2ncnc2n1` (single isomer, unassigned) [Example 120, (1S or R)-2-Methyl-1-[4-(1-methyl-cyclopropyl)phenyl]-1-[(5-methyl[1,2,4]triazolo[1,5-a]pyrimidin-7-yl)amino]propan-2-ol] belongs more than 2960 nM; to `Cc1cc(NC(c2ccc(C3(C)CC3)cc2)C(C)(C)O)n2ncnc2n1` (single isomer, unassigned) [Example 121, (1R or S)-2-Methyl-1-[4-(1-methyl-cyclopropyl)phenyl]-1-[(5-methyl[1,2,4]triazolo[1,5-a]pyrimidin-7-yl)amino]propan-2-ol], 11 nM; to `Cc1cc(NC(c2ccc3ccccc3c2)C(C)(C)O)n2ncnc2n1` (single isomer, unassigned) [Example 122, (1S or R)-2-Methyl-1-[(5-methyl [1,2,4]triazolo [1,5-a]pyrimidin-7-yl)amino]-1-naphthalen-2-yl propan-2-ol], more than 2960 nM.
To `Cc1cc(NC(c2ccc3ccccc3c2)C(C)(C)O)n2ncnc2n1` (single isomer, unassigned) [Example 123, (1R or S)-2-Methyl-1-[(5-methyl [1,2,4]triazolo [1,5-a]pyrimidin-7-yl)amino]-1-naphthalen-2-yl propan-2-ol] belongs 35 nM; to `Cc1cc(NC(c2cc3ccccc3n2C)C(C)(C)O)n2ncnc2n1` (single isomer, unassigned) [Example 124, (1S or R)-2-Methyl-1-(1-methyl-1H-indol-2-yl)-1-[(5-methyl [1,2,4]triazolo [1,5-a]pyrimidin-7-yl)amino] propan-2-ol], 79 nM; to `Cc1cc(NC(c2cc3ccccc3n2C)C(C)(C)O)n2ncnc2n1` (single isomer, unassigned) [Example 125, (1R or S)-2-Methyl-1-(1-methyl-1H-indol-2-yl)-1-[(5-methyl [1,2,4]triazolo [1,5-a]pyrimidin-7-yl)amino] propan-2-ol], more than 2960 nM.
On to `Cc1cc(NC(c2ccc(-c3ccccc3)cc2)C(C)(C)O)n2ncnc2n1` (single isomer, unassigned) [Example 126, (1S or R)-1-Biphenyl-4-yl-2-methyl-1-[(5-methyl[1,2,4]triazolo[1,5-a]pyrimidin-7-yl)amino]propan-2-ol], for which the Ki was more than 2960 nM.
Turning to `Cc1cc(NC(c2ccc(-c3ccccc3)cc2)C(C)(C)O)n2ncnc2n1` (single isomer, unassigned) [Example 127, (1R or S)-1-Biphenyl-4-yl-2-methyl-1-[(5-methyl[1,2,4]triazolo[1,5-a]pyrimidin-7-yl)amino]propan-2-ol], the inhibitory constant (Ki) amounted to 21 nM.
The figure for `Cc1cc(NC(c2ccc(OC(F)(F)F)cc2C)C(C)(C)O)n2ncnc2n1` (single isomer, unassigned) [Example 128, (1S or R)-2-Methyl-1-[(5-methyl[1,2,4]triazolo[1,5-a]pyrimidin-7-yl)amino]-1-[2-methyl-4-(trifluoromethoxy)phenyl]propan-2-ol] is more than 2960 nM; for `Cc1cc(NC(c2ccc(OC(F)(F)F)cc2C)C(C)(C)O)n2ncnc2n1` (single isomer, unassigned) [Example 129, (1R or S)-2-Methyl-1-[(5-methyl[1,2,4]triazolo[1,5-a]pyrimidin-7-yl)amino]-1-[2-methyl-4-(trifluoromethoxy)phenyl]propan-2-ol] it is 21 nM.
